In patent US20130245028A1, “TREATMENT OF CANCER WITH TOR KINASE INHIBITORS” (SIGNAL PHARMACEUTICALS, LLC, priority 2012, published 2013):

Columns and labels:
[1] = tested on: ETS positive prostate cancer cells (VCAP and LNCAP); experiment: COMET DNA damage assay; assay type: cell-based; details: FIG. 4
Text: DNA Damage Assays: COMET Assay.

[2] = tested on: LNCaP, VCaP, DU145 or PC3 prostate cancer cell lines; experiment: Matrigel cell invasion assay for ETS positive and ETS negative lines; assay type: cell-based; details: 10 μM, 48 hours treatment; FIG. 3
Procedure: Cell Invasion Assay for ETS Positive and ETS Negative Lines. […] Then cells were tripsinized and re-seeded onto BD biocoat matrigel invasion chamber insert with […] of a 24-well culture plate in serum free media. Cells were then attracted to the lower chamber by the addition of complete media as a chemoattractant. After 48 hours incubation at 37° C./5% CO2, the non-invading cells and EC matrix were gently removed with a cotton swab. Invasive cells, which were located on the lower side of the membrane, were stained with crystal violet, air dried and photographed (FIG. 3).

LNCaP-HR tumor = experiment: Castration-resistant LNCaP (LNCaP-HR) prostate cancer in vivo xenograft model; details: castrated male SCID mice, oral QD up to 15 days, 1 to 5 mg/kg; FIG. 5
Procedure: Castration-Resistant LNCaP (LNCaP-HR) Prostate Cancer In Vivo Xenograft Model A xenograft study was conducted with castration resistant LNCaP-HR tumor-bearing mice. Castrated male SCID mice were inoculated subcutaneously with LNCaP-HR cells in the flank region above the right hind leg. Following inoculation of animals, the tumors were allowed to grow to about 325 mm^3 prior to randomization. On Day 26 following tumor cell inoculation, the mice bearing LNCaP-HR tumors ranging between 98 and 530 mm^3 were pooled together and randomized into various treatment groups. […] The positive control MDV-3100 (50 mg/kg, Q4D) was administered via oral route. MDV-3100 was formulated in 1% CMC, 0.1% Tween 80 and 5% dimethyl sulfoxide (DMSO) in water (as a suspension). Tumors were measured twice a week using calipers and tumor volumes were calculated using the formula of W2×L/2 (wherein “W” is tumor width and “L” is tumor length). Statistical analysis was performed using a one-way analysis of variance (ANOVA) followed by Dunnett's post-hoc comparison with the vehicle-treated control group.

[3] = tested on: PC3 and PC3-ERG prostate cancer cells; experiment: Clonogenic growth inhibition assay for ETS positive and ETS negative lines; assay type: cell-based; details: PC3 vs PC3-ERG (ETS overexpression); FIG. 1A-C
Text: Clonogenic Assay: Growth Inhibition Assay for ETS Positive and ETS Negative Lines. […] Then, cells were washed three times with PBS, trypsinized, and replated onto 6 well plates at desired cell densities. Every 3 days the media was replaced with fresh media containing compound. After typically 10-18 days, the cells were fixed and surviving colonies were stained with 0.1% crystal violet and counted by Image Quant (BD biosciences).

[4] = tested on: ETS-positive (VCaP and LNCaP) and ETS-negative (PC3 and DU145) prostate cancer cell lines; experiment: Caspase 3/7-Glo apoptosis assay for ETS positive and ETS negative lines; assay type: cell-based; details: single treatment, 48 hours; FIG. 2
Procedure: Caspase Analysis: Apoptosis Assay for ETS Positive and ETS Negative Lines. […] Cells were then directly seeded at desired densities to the Compound 1-spotted 384-well plates. Cells were cultured for 48 hours at 37° C./5% CO2 and were assessed via Caspase 3/7-Glo (Promega Corporation, Madison, Wis.) and read for luminescence.

## 1-ethyl-7-(2-methyl-6-(1H-1,2,4-triazol-3-yl)pyridin-3-yl)-3,4-dihydropyrazino[2,3-b]pyrazin-2(1H)-one [Compound 1]
[1]
  DNA damage (COMET tail moments): potentiates DNA damage in ETS positive cells
[2]
  cell invasion: reduced cell invasion
LNCaP-HR tumor
  LNCaP-HR prostate cancer tumor growth: significantly inhibited
[3]
  clonogenic growth inhibition (surviving colonies): ETS overexpression sensitizes PC3 cells to inhibition
[4]
  Caspase activity (apoptosis): increased apoptosis in ETS positive cell lines
